Test results: patent US20240182431A1, “NEW CONTRAST AGENT FOR USE IN MAGNETIC RESONANCE IMAGING” (Bayer Aktiengesellschaft, priority 2021, published 2024)

Tests used:
[1] = 1.5 T, 37° C., from Rohrer et al., cited from earlier work; for r1 human plasma: bovine plasma instead of human plasma
[2] = Partition coefficient (logP butanol/buffer); format: physicochemical; conditions: 1-butanol / 50 mM Tris-HCl, pH 7.4, room temperature
[3] = Excretion study in rats (5 days) and residual gadolinium organ distribution (7 days); format: in vivo, rat; conditions: male rats, 0.1 mmol Gd/kg bw i.v.; for Σ organs and carcass: 7 d post injection
Description: The excretion and organ distribution of Example 1 and 15 were determined in male rats (Han-Wistar, n=3). The compound was administered as a sterile aqueous solution (50 mmol Gd/L) as a bolus in the tail vein of the animals. The dose was 0.1 mmol Gd/kg bw.
Urine was collected in the following time periods 0-1 h, 1-3 h, 3-6 h, 6-24 h, 1-2 d and 2-5 d post injection […] and feces 0-1 d, 1-2 d and 2-5 d post injection. As a control, 3 animals were treated in the same way with RC1. On day 7 the animals were sacrificed, and the following organs were excised: blood, liver, kidney, spleen, heart, lung, brain, muscle, skin, stomach, gut, bone and bone marrow. The remaining carcass was freeze dried and ground to a fine powder. The Gd concentration in the organs and the carcass was determined by ICP-MS (ICP-MS Agilent 7500a, Waldbronn, Germany). The compounds are excreted via dual pathway (liver and kidney). Less than 1% of the administered dose was present in the body 7 days after the injection.

[4] = Biliary elimination in bile duct cannulated rats; conditions: BDC rats, i.v. bolus
Description: All animals are initially anesthetized using a body weight-adjusted intramuscular injection of a mixture (1+2) of xylazine hydrochloride (20 mg/mL, Rompun 2%, Bayer Vital GmbH, Leverkusen) and ketamine hydrochloride (100 mg/mL, Ketavet, Pfizer, Pharmacia GmbH, Berlin) using 1 mL/kg body weight. The continuous anesthesia of the animals is achieved by the intravenous injection of 1.5 mL per hour (Braun perfusor infusion of 1+2, 1:20 saline, xylazine hydrochloride 20 mg/mL, Rompun 2%, Bayer Vital GmbH, Leverkusen and ketamine hydrochloride 100 mg/mL, Ketavet, Pfizer, Pharmacia GmbH, Berlin) via tail vein (Introcan, 24G, yellow). The animals received 0.1 mol Gd/kg bw as intravenous bolus injection via tail vein (50 mmol Gd/L formulation). Bile was sampled 0-0.5 h, 0.5-1 h, 1-2 h, 2-3 h und 3-4 h post injection. […] The bile fractions (n=3 times 10 μL) were dried for 2 h at 90° C. and 50 μL 65% nitric acid (HNO3, Fa. Fisher, Optima Grade #1219010) and 30 μL hydrogen peroxide 30% (H2O2 Fa VWR Chemicals, AnalaR NORMAPUR, #18J024022) were added and processed in microwave oven (5 cycles: 5 min 40 W, 5 min 120 W, 10 min 200 W, 10 min 320 W and 25 min 400 W, Fa. CEM, Mars5 Xpress).

[5] = target: T1, OATP1B3 (Homo sapiens, UniProt Q9NPD5); test: Uptake into stable transfected OATP1B3 HEK 293 cells; format: cell-based
T1 sequence (Q9NPD5 1-702): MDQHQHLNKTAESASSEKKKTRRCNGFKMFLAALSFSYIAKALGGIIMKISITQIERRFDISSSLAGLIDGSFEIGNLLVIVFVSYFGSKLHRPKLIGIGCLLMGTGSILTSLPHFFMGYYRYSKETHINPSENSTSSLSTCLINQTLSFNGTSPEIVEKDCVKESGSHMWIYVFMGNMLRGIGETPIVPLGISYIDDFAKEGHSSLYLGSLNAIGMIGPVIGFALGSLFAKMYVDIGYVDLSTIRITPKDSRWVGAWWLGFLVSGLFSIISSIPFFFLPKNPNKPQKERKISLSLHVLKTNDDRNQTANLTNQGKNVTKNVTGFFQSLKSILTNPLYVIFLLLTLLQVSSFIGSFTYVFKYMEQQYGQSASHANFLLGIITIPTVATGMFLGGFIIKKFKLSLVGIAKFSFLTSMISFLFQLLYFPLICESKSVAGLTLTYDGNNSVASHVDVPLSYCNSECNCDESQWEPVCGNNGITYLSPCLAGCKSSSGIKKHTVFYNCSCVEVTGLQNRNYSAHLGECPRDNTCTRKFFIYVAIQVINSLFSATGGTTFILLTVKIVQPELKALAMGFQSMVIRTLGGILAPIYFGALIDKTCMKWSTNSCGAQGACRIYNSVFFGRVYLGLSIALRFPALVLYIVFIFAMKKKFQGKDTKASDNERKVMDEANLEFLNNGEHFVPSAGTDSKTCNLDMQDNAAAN

[6] = target: T2, OATP1B1 (Homo sapiens, UniProt Q9Y6L6); test: Uptake into stable transfected OATP1B1 HEK 293 cells; format: cell-based; conditions: for Uptake into OATP1B1-HEK 293 cells: 100 μM, 40 min, relative to RC1
T2 sequence (Q9Y6L6 1-691): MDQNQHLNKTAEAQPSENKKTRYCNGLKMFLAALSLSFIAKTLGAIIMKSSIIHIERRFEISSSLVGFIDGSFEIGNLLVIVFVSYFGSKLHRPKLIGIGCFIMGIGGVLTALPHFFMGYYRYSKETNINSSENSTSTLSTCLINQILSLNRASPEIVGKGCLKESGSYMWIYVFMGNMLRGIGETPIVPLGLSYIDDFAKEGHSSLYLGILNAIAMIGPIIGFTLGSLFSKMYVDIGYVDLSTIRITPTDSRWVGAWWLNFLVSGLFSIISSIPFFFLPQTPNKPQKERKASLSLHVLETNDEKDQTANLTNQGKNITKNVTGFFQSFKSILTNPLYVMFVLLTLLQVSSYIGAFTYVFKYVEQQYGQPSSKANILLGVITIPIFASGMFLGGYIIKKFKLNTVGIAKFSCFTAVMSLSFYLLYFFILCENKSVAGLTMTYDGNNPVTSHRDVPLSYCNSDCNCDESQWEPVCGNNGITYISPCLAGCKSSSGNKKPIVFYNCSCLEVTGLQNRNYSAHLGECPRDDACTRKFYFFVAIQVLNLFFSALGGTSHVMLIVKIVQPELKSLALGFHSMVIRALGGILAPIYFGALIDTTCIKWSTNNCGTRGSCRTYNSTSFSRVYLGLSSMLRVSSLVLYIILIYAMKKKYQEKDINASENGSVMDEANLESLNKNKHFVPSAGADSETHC
Description: Cryopreserved cells were shortly thawed in water bath and diluted in 10 mL warm culture medium (37° C.). After medium change the cells were grown for 3 d in a 25 cm^2 cell culture flask. After 3 to 5 d the cells were transferred into 75 cm^2 flasks. […] All test items were prepared in transport buffer at a final concentration of 100 μM from stock solutions (180 to 500 mM concentration). The OATP1B1 HEK 293 cells were incubated with test solutions (test item in transport buffer 500 μL) for 40 min on a thermoshaker without shaking (PHMP, Fa. Grant Bio). Triplicates were performed for each test item. After incubation the cells were washed with 2 mL of cold PBS (+) buffer (Dulbeccos PBS+, Fa. Gibco). The OATP1B1 HEK 293 cells were lysed by addition of 500 μL cold 0.01% Triton-X 100 in Millipore water for 1 h. […] After 1 h 500 μL of 1 nM Terbium ICP-MS standard was added in 2% nitric acid and 0.01% Triton 100.

[7] = Complex stability (transmetallation with Zn2+); format: physicochemical; conditions: 72 hours, 2.5 mM Zn^2+, 26 mM phosphate buffer, 37° C., pH 7.4
From the text: If test compounds are instable under these conditions, transmetallation during this test would lead to the formation of the Zn^2+ complex of the test item, while Gd^3+ is released and precipitated as highly insoluble GdPO4.

[8] = In vivo pharmacokinetics following i.v. administration in rat; conditions: i.v. bolus, dose 100 μmol/kg bw
Description: Pharmacokinetic parameters of Example 1 and 15 and were determined in male and female rats (Han-Wistar, n=4). […] The samples were digested using strong acidic and oxidizing conditions at elevated temperature following dilution in 1% nitric acid to bring the samples in the quantification range of the method. The lower limit of quantitation amounts to 1 nmol/L for all elements and the upper limit to 1000 nmol/L in the diluted sample.
The fit of the obtained data to a three-compartment model (Phoenix, WinNonlin 6.4, 3-compartment mode) yielded the pharmacokinetic parameters which are shown in Table 8.

[9] = Water solubility in aqueous buffer; format: physicochemical; conditions: aqueous buffer 10 mM Tris-HCl, pH 7.4, 20° C.
Description: The solid compounds were added stepwise to the buffer solution.
More substance is added once all the suspended material is dissolved until an equilibrium between undissolved and dissolved substance is reached. The suspension was mixed using a shaker (Heidolph Reax 2000) and treated 5 mn in an ultrasound bath (Bandelin, Sonorex Super RK255H).

[10] = test system: freshly isolated rat hepatocytes; test: Uptake into freshly isolated rat hepatocytes; format: cell-based
Description: After incubation the adherent hepatocytes were washed once with 37° C. Hepes carbonate transport buffer (500 μL/well). The test items and RC1 were prepared from stock solutions (180 to 500 mM concentration) in Hepes carbonate transport buffer at pH 7.4 to reach a final concentration of 100 μmol Gd/L. The specific uptake of the test item or RC1 into rat hepatocytes via OATP1B1 and OATP1B3 was challenged using a known OATP1B1/1B3 inhibitor (Rifampicine, Fa. Sigma R3501, test item and inhibitor 1:1 each 100 μM final concentration). The prepared rat hepatocyte plates were incubated with test solutions (500 μL/well) at 37° C. for 10 min using a thermoshaker (Fa. Grant Bio, PHMP). Triplicates were performed for each test item. After incubating the cells were washed once with cold PBS buffer (Fa. Gibco, Dulbeccos PBS (+)). After washing the intact hepatocytes were lysed by addition of 500 μL cold 0.01% Triton-X 100 in Millipore water for 1 h. […] As a reference standard RC1 is used in the same well plate. The hepatocyte uptake of the test compound is calculated relative to RC1 (resulting in the unit % of RC1).

[11] = cited from earlier work

Q: Which r1 human plasma [1] does the source give for `O=C([O-])CN1CCN(CC(=O)[O-])CCN([C@H](CO)[C@H](O)CO)CCN(CC(=O)[O-])CC1.[Gd+3]` (racemic) [RC3, gadobutrol, reference compound] here?
A: 5.2 L/mmol/s

Q: And the “Log P (butanol/buffer)” value [2]?
A: −2.22

Q: Which r1 human plasma [1] does the source give for `O=C([O-])CN(CCN(CC(=O)[O-])CC(=O)[O-])CCN(CC(=O)[O-])C(COCc1ccccc1)C(=O)[O-].[Gd+3]` (centres unmarked) [RC2, Gd-BOPTA, reference compound] here?
A: 4.1 L/mmol/s

Q: What about the “Log P (butanol/buffer)” value [2] of the same compound?
A: −2.07

Q: With `CCOc1ccc(CCOCC(C(=O)O)N2CCN(CC(=O)[O-])CCN(CC(=O)[O-])CCN(CC(=O)[O-])CC2)cc1.[Gd+3]` (centres unmarked) [Example 1, gadolinium 2,2′,2″-(10-{1-carboxy-2-[2-(4-ethoxyphenyl)ethoxy]ethyl}-1,4,7,10-tetraazacyclododecane-1,4,7-triyl)triacetate] as the compound, how does the “Excretion Urine” value ([3]; 0-1 h post injection) read?
A: 39.8 ± 6.8% Dose

Q: And the “Excretion Feces” value ([3]; 0-1 d post injection)?
A: 55.6 ± 5.6% Dose

Q: What about the “Excretion Urine” value ([3]; 1-3 h post injection) of the same compound?
A: 40.3 ± 6.8% Dose

Q: And the “Excretion Feces” value ([3]; 1-2 d post injection)?
A: 56.9 ± 6.6% Dose

Q: And the “Excretion Urine” value ([3]; 1-2 d post injection)?
A: 40.9 ± 7.4% Dose

Q: And the “Excretion Feces” value ([3]; 2-5 d post injection)?
A: 57.0 ± 6.6% Dose

Q: And the “Excretion Urine” value ([3]; 2-5 d post injection)?
A: 40.9 ± 7.4% Dose

Q: And the “Excretion Urine” value ([3]; 3-6 h post injection)?
A: 40.3 ± 6.8% Dose

Q: What about the “Excretion Urine” value ([3]; 6-24 h post injection) of the same compound?
A: 40.8 ± 7.4% Dose

Q: What about the “Σ organs and carcass” value [3] of the same compound?
A: 0.65 ± 0.07% Dose

Q: And the Total recovery [3]?
A: 98.6 ± 2.1% Dose

Q: And the “Log P (butanol/buffer)” value [2]?
A: −0.98

Q: And the “Biliary excretion, Mean ± SD (cumulative)” value (shortened to “Biliary excretion, Mean ± SD”) ([4]; bile fraction 0-0.5 h)?
A: 55.5 ± 1.7% of injected dose

Q: What about the “Biliary excretion, Mean ± SD” value ([4]; bile fraction 0.5-1 h) of the same compound?
A: 62.6 ± 0.7% of injected dose

Q: What about the “Biliary excretion, Mean ± SD” value ([4]; bile fraction 1-2 h) of the same compound?
A: 65.1 ± 1.3% of injected dose

Q: What about the “Biliary excretion, Mean ± SD” value ([4]; bile fraction 2-3 h) of the same compound?
A: 65.6 ± 1.6% of injected dose

Q: What about the “Biliary excretion, Mean ± SD” value ([4]; bile fraction 3-4 h) of the same compound?
A: 65.8 ± 1.7% of injected dose

Q: For `CCOc1ccc(C[C@@H](CN(CCN(CC(=O)[O-])CC(=O)[O-])CC(=O)[O-])N(CC(=O)[O-])CC(=O)[O-])cc1.[Gd+3].[H+].[H+]` [RC1, Gd-EOB-DTPA], which “Uptake into OATP1B3-HEK 293 cells” value ([5]; 100 μM, 40 min, relative to RC1) is on record?
A: 100 % of RC1

Q: And the “Inhibition Rifampicine” value ([5]; OATP1B3-HEK 293 cells)?
A: 99 % inhibition

Q: And the r1 human plasma [1]?
A: 5.2 L/mmol/s

Q: And the r1 water ([1]; water)?
A: 3.3 L/mmol/s

Q: What about the “Uptake into OATP1B1-HEK 293 cells” value [6] of the same compound?
A: 100 % of RC1

Q: And the “Inhibition Rifampicine” value ([6]; OATP1B1-HEK 293 cells)?
A: 81 % inhibition

Q: What about the Transmetallation stability [7] of the same compound?
A: 44%

Q: What about the “AUCnorm Area under the curve” value [8] of the same compound?
A: 0.40 kg·h/L

Q: What about the “Clplasma Plasma clearance” value [8] of the same compound?
A: 40 mL/min/kg

Q: And the “Vss Volume of distribution at steady state” value [8]?
A: 0.9 L/kg

Q: And the “t½ α Half-life, compartment V1” value [8]?
A: 2 min

Q: What about the “t½ β Half-life, compartment V2” value [8] of the same compound?
A: 8 min

Q: What about the “t½ γ Half-life, compartment V3” value [8] of the same compound?
A: 390 min

Q: And the “Excretion Urine” value ([3]; 0-1 h post injection)?
A: 23.2 ± 1.6% Dose

Q: What about the “Excretion Feces” value ([3]; 0-1 d post injection) of the same compound?
A: 77.5 ± 2.7% Dose

Q: What about the “Excretion Urine” value ([3]; 1-3 h post injection) of the same compound?
A: 23.5 ± 1.5% Dose

Q: And the “Excretion Feces” value ([3]; 1-2 d post injection)?
A: 80.6 ± 2.9% Dose

Q: What about the “Excretion Urine” value ([3]; 1-2 d post injection) of the same compound?
A: 23.7 ± 1.5% Dose

Q: What about the “Excretion Feces” value ([3]; 2-5 d post injection) of the same compound?
A: 80.8 ± 2.9% Dose

Q: And the “Excretion Urine” value ([3]; 2-5 d post injection)?
A: 23.7 ± 1.5% Dose

Q: And the “Excretion Urine” value ([3]; 3-6 h post injection)?
A: 23.6 ± 1.5% Dose

Q: What about the “Excretion Urine” value ([3]; 6-24 h post injection) of the same compound?
A: 23.7 ± 1.5% Dose

Q: What about the “Σ organs and carcass” value [3] of the same compound?
A: 0.14 ± 0.08% Dose

Q: What about the Total recovery [3] of the same compound?
A: 104.6 ± 2.4% Dose

Q: What about the “Log P (butanol/buffer)” value [2] of the same compound?
A: −2.12

Q: What about the Solubility [9] of the same compound?
A: >250 mM

Q: And the Uptake rat hepatocytes ([10]; 100 μmol Gd/L, 10 min, 37° C., relative to RC1)?
A: 100 % of RC1

Q: And the “Inhibition Rifampicine” value ([10]; test item and Rifampicine 1:1 each 100 μM)?
A: 97 % inhibition

Q: For `CCOc1ccc(C[C@@H](CN(CCN(CC(=O)[O-])CC(=O)[O-])CC(=O)[O-])N(CC(=O)[O-])CC(=O)[O-])cc1.[Gd+3].[H+].[H+]` [Gd-EOB-DTPA, gadoxetic acid], which “excreted into the bile” value ([11]; in vivo) is on record?
A: up to 50 % of the administered dose

Q: With `O=C([O-])CN(CCN(CC(=O)[O-])CC(=O)[O-])CCN(CC(=O)[O-])C(COCc1ccccc1)C(=O)[O-].[Gd+3].[H+].[H+]` (centres unmarked) [Gd-BOPTA, gadobenic acid] as the compound, how does the “secreted into the bile” value ([11]; Seale et al. 2009) read?
A: 3-to-5%

Q: With `CCOCCOCCOc1ccc(CCCC(C(=O)O)N2CCN(CC(=O)[O-])CCN(CC(=O)[O-])CCN(CC(=O)[O-])CC2)cc1.[Gd+3]` (centres unmarked) [Example 25, gadolinium 2,2′,2″-{10-[1-carboxy-4-{4-[2-(2-ethoxyethoxy)ethoxy]phenyl}butyl]-1,4,7,10-tetraazacyclododecane-1,4,7-triyl}triacetate] as the compound, how does the “Uptake into OATP1B1-HEK 293 cells” value [6] read?
A: 301 % of RC1

Q: What about the “Log P (butanol/buffer)” value [2] of the same compound?
A: −1.00
